Experimental data as given in patent publication US8722697B2, “Pharmaceutical composition for treating hypertension and metabolic syndrome and use thereof” (Lunan Pharmaceutical Group Corporation, priority 2008, dated 2014).

Legend:
[1] = tested on: spontaneously hypertensive rats; assay: Carotid intima-media thickness in spontaneously hypertensive rats; assay type: in vivo, rat; settings: carotid artery; intragastric once daily for six months, high sugar and high fat diets; X ± S, n = 8
Procedure: Forty-eight spontaneously hypertensive rats (male, body weight (300±20) g, provided by the Pharmacological Center for New Medicine of Shandong New Time Pharmaceutical Co., Ltd.) were fed for one week for acclimation, and then randomly divided into six groups with eight rats in each group.
(§1) Model control group: intragastric administration of same volume of physiological saline;
P group: intragastric administration of 2 mg/(kg·d) of pioglitazone;
LA+R group: intragastric administration of 1 mg/(kg·d) of levo-amlodipine+1 mg/(kg·d) of rosuvastatin calcium;
P+R group: intragastric administration of 2 mg/(kg·d) of pioglitazone+1 mg/(kg·d) of rosuvastatin calcium;
LA group: intragastric administration of 1 mg/(kg·d) of levo-amlodipine;
Pharmaceutical composition of the present invention: intragastric administration of 1 mg/(kg·d) of levo-amlodipine+2 mg/(kg·d) of pioglitazone+1 mg/(kg·d) of rosuvastatin calcium;
Each group was given intragastric administration once every day and fed with high sugar and high fat diets for six months. During the experiment, the diet, survival status and behaviors of the animals were recorded, and the animals were weighed once every week and the doses of administration were adjusted according to the body weights.
After the animal was anesthetized and fixed, Even's blue (60 mg/kg) dye was injected via a femoral artery. […]

[2] = tested on: spontaneously hypertensive rats; assay: Tail arterial blood pressure of conscious spontaneously hypertensive rats; assay type: in vivo, rat; settings: X ± S, n = 8
Procedure: (§2) Forty-eight spontaneously hypertensive rats (male, body weight (300±20) g, provided by Pharmacological Center for New Medicine of Shandong New Time Pharmaceutical Co., Ltd.) were fed for one week for acclimation, and then randomly divided into six groups with eight animals in each group.
as §1
(§3) P group: 1 mg/(kg·d) of pioglitazone;
(§4) A+R group: 2 mg/(kg·d) of amlodipine+1 mg/(kg·d) of rosuvastatin calcium;
(§5) P+R group: 1 mg/(kg·d) of pioglitazone+1 mg/(kg·d) of rosuvastatin calcium;
(§6) Pharmaceutical composition of the present invention: 2 mg/(kg·d) of amlodipine+1 mg/(kg·d) of pioglitazone+1 mg/(kg·d) of rosuvastatin calcium;
(§7) Each group was given intragastric administration once every day for ten weeks. During the experiment, the diet, survival status and behaviors of the animals were recorded, and the animals were weighted once every day and the doses of administration were adjusted according to the body weights. Animals were sacrificed after ten weeks, and their hearts were taken out to determine the weights of left ventricles and calculate left ventricular indexes.
Blood pressures were measured five times between two and five hours after intragastric administration in the first week, the third week and the sixth week, respectively. The average value of the blood pressures was used as the blood pressure of the sample.

[3] = tested on: spontaneously hypertensive rats; assay: Urinary microalbumin (bromophenol blue absorbance) in spontaneously hypertensive rats; assay type: in vivo, rat; settings: intragastric once daily, high sugar and high fat diets, doses per group b107-b111; twelve-hour overnight urine; week not stated; X ± S, n = 8
From the text: as §1

[4] = tested on: spontaneously hypertensive rats; assay: Cardiac hypertrophy (left ventricular weight/body weight) in spontaneously hypertensive rats; assay type: in vivo, rat; settings: after ten weeks of intragastric administration once daily; X ± S, n = 8
Procedure: as §2, §1, §3, §4, §5, §6, §7
After being sacrificed with 10% potassium chloride (2 mmol/L, 1 ml/rat), the rats were weighed. […] The left ventricular was weighed after the atria were removed, and a ratio of left ventricular weight to body weight was calculated.

[5] = tested on: patients suffered from metabolic syndrome; assay: Clinical treatment of patients suffered from metabolic syndrome; assay type: in vivo, human; settings: X ± S
From the text: Eighty-eight metabolic syndrome patients were selected from those received treatment in Linyi People's Hospital from May 2007 to May 2008, and randomly divided into a control group and an experimental group.
Control group: twenty-eight males and sixteen females, whose ages were between 62 and 71 and whose body mass indexes (BMI) were between 25.5 and 30;
Experimental group: twenty-four males and twenty females, whose ages were between 60 and 70 and whose body mass indexes (BMI) were between 24.5 and 31;
Before the treatment, all patients were subjected to blood lipids (including total cholesterol (TC), high-density lipid cholesterol (HDLC)) analysis, and detection of glycated hemoglobin (HbAlC), fasting blood glucose (FBG), fasting insulin (FINS) and fibrinogen (Fg).
Patients suffered from metabolic syndrome were selected according to the diagnostic standards for type-II diabetes mellitus and hypertension made by WHO in 1999 and referring to the diagnostic standards for metabolic syndrome made by US National Cholesterol Education Program Adult Treatment Panel (NCEP-ATP III) in 2000, while cases of […], heart failure (above grade II), diseases in liver, kidney and blood system and like were excluded.
Patients in the control group were administrated with 15 mg of pioglitazone once every day, and patients in the experimental group were administrated with 5 mg of amlodipine, 7.5 mg of pioglitazone and 5 mg of rosuvastatin calcium, i.e. the proportions as described in Example 1, once every day. After eight weeks of continuous treatment, all of the above parameters were re-determined, in which blood glucose was determined with hexokinase method, blood lipid was determined with esterase method, fibrinogen was determined with coagulation method and chromogenic substrate assay, HbAlC was determined with chromatography, and fasting insulin was determined with chemiluminescence immunoassay.
Statistical analysis: SPSS software was employed, and test of significance was performed by using a paired sample t test.

calcium channel = settings: background statement; cited from earlier work
[6] = intragastric once daily, 2-5 h after administration

| Compound | Maximum intima thickness [1] [mm] | Ratio of intima to media thickness [1] | Blood pressure, before treatment ([2]; baseline before treatment) [mmHg] | Blood pressure after treatment, first week [2, 6] [mmHg] | Blood pressure after treatment, sixth week [2, 6] [mmHg] | Blood pressure after treatment, third week [2, 6] [mmHg] | Urinary microalbumin, Absorbance A (600 nm) [3] | Left ventricular weight [4] [g] | Left ventricular weight/body weight (×10^−3) [4] | FINS (fasting insulin), after treatment ([5]; after eight weeks, once every day, chemiluminescence immunoassay) [mlU/L] | HbAlC (glycated hemoglobin), after treatment ([5]; after eight weeks, once every day, chromatography) [%] | Fg (fibrinogen), after treatment ([5]; after eight weeks, once every day, coagulation method and chromogenic substrate assay) [mg/dL] | FBG (fasting blood glucose), after treatment ([5]; after eight weeks, once every day, hexokinase method) [mmol/L] | FINS (fasting insulin), before treatment ([5]; baseline before treatment, chemiluminescence immunoassay) [mlU/L] | HbAlC (glycated hemoglobin), before treatment ([5]; baseline before treatment, chromatography) [%] | Fg (fibrinogen), before treatment ([5]; baseline before treatment, coagulation method and chromogenic substrate assay) [mg/dL] | FBG (fasting blood glucose), before treatment ([5]; baseline before treatment, hexokinase method) [mmol/L] | Activity relative to the dextroisomer (calcium channel) [times] | Activity relative to the racemate (calcium channel) |
| --- | --- | --- | --- | --- | --- | --- | --- | --- | --- | --- | --- | --- | --- | --- | --- | --- | --- | --- | --- |
| CCc1ccc(CCOc2ccc(CC3SC(=O)NC3=O)cc2)nc1 (stereo not shown) [P group, pioglitazone] | 0.130 ± 0.026 | 2.246 ± 0.361 | 151 ± 7.6 | 157 ± 8.6 | 170 ± 8.8 | 162 ± 10.3 | 0.568 ± 0.125^• | 0.99 ± 0.10 | 3.33 ± 0.19 ×10^−3 | 25.68 ± 5.34 | 6.39 ± 0.56 | 392.6 ± 64.51 | 6.63 ± 1.65 | 32.4 ± 7.21 | 6.89 ± 0.65 | 419.6 ± 89.62 | 7.12 ± 2.06 |  |  |
| levo-amlodipine [A Group] |  |  |  |  |  |  |  |  |  |  |  |  |  |  |  |  |  | 1000 | twice as high as that of the racemate |
